The target of one data set is T1, bovine serum albumin (Bos taurus, UniProt P02769).
T1 construct: bovine serum albumin solution (fraction V); purchased Merck and Sigma-Aldrich; host or cells: bovine serum (fraction V)
Nature of the data set: In vitro inhibition of albumin denaturation. To be noted: heat denaturation, 60 °C 10 min. A digest of the protocol: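 Bovine serum albumin (fraction V, 1% w/v in phosphate buffer, pH 7.4) mixed with test compound, held 15 min at 37 °C, then heated 10 min at 60 °C. After cooling, turbidity read as absorbance at 660 nm against a DMSO blank.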

The test system of another data set is MCF-7 cells. The data set is described as follows: MTT viability assay. The note with it: Homo sapiens, MCF7, 48 h. Type of data set: cell-based. Here is the method:
(§1) HeLa, MCF-7, U251, U87, MDA-MB-435, and MDA-MB-231 cancer cell lines were maintained in incubators at 37 °C with 5% CO2 in DMEM medium supplemented with 10% (v/v) fetal bovine serum (FBS) and antibiotics/antimycotics. All cell lines used in this study originate from the Laboratory of Biochemistry, Department of Chemistry, Aristotle University of Thessaloniki. They are low-passage, mycoplasma-free cancer cell lines that have been extensively used over the past 25 years in numerous studies across various fields of cancer research, including drug cytotoxicity testing.
(§2) All cell lines tested were seeded in 96-well plates at a concentration of 6 × 10^3 cells per well, except HeLa, which were seeded at 3 × 10^3 cells per well. The day after, cells were exposed to increasing concentrations of the compounds for 48 h. Cell viability was determined using the 3-(4,5-dimethylthiazol-2-yl)-2,5-diphenyltetrazolium bromide (MTT) assay, a colorimetric assessment of cellular metabolic activity as described previously. Absorbance values from treated samples were normalized to those of untreated controls, which were assigned to a 100% viability value.

For another data set, the system named is HeLa cells. Nature of the data set: MTT viability assay. The data set is classed as cell-based. The note with it: Homo sapiens, 48 h. On the procedure: as §1, §2
Data set [1] is described as follows: In vitro determination of NO release with Griess reagent. To be noted: 100 μM, L-cysteine, pH 7.4, 37 °C, 60 min. In a few lines: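 Compounds at 100 µM final in phosphate buffer pH 7.4 with 0.5 mM L-cysteine, incubated 60 min at 37 °C, also run without cysteine. Nitrite detected with Griess reagent after 10 min at room temperature by absorbance at 540 nm. Reported as % NO2⁻ (mol/mol) in the presence of L-cysteine.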
In general terms: Nitrite, measured by Griess reagent, commonly stands in for NO production.

Data set [2] has as its target T2, soybean lipoxygenase isoenzyme-1 (SLOX-1) (Glycine max, UniProt P08170).
T2 construct: purchased Merck and Sigma-Aldrich
T2 sequence (P08170 1-839): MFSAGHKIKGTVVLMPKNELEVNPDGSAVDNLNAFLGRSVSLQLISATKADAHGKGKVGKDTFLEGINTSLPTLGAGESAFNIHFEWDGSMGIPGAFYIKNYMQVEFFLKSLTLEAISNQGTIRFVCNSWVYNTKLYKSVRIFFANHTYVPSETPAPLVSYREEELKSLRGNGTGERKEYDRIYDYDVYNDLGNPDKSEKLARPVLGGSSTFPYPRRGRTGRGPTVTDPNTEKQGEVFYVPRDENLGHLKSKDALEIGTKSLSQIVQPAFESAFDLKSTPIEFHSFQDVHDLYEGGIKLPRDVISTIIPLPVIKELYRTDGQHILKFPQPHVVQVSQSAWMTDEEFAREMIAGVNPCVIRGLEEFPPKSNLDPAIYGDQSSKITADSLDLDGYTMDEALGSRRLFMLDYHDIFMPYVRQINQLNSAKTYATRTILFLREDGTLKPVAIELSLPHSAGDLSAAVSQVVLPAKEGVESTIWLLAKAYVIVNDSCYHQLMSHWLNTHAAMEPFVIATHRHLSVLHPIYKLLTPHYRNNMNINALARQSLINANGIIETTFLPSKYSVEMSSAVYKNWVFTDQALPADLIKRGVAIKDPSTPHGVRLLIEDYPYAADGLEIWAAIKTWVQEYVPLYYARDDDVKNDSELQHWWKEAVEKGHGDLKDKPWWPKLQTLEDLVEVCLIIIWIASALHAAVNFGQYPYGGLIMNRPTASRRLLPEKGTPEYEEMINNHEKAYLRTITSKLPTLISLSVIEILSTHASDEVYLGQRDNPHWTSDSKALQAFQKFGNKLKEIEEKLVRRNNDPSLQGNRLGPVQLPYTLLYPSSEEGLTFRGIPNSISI
The data set is described as follows: In vitro inhibition of soybean lipoxygenase. The data set is classed as biochemical. The note with it: pH 9.0, read-out: LOX Inh. IC50. Here is the method: In vitro anti-LOX activities were evaluated using soybean lipoxygenase isoenzyme-1 (SLOX-1), a commonly used model for mammalian LOXs.
An in vitro study was conducted following a previously reported method. The tested compounds were dissolved in DMSO (100 µM) and incubated at room temperature with 0.1 mL of sodium linoleate as the substrate and 0.2 mL of soybean lipoxygenase solution in Tris-HCl buffer (pH 9.0).

T1 sequence (P02769 25-607): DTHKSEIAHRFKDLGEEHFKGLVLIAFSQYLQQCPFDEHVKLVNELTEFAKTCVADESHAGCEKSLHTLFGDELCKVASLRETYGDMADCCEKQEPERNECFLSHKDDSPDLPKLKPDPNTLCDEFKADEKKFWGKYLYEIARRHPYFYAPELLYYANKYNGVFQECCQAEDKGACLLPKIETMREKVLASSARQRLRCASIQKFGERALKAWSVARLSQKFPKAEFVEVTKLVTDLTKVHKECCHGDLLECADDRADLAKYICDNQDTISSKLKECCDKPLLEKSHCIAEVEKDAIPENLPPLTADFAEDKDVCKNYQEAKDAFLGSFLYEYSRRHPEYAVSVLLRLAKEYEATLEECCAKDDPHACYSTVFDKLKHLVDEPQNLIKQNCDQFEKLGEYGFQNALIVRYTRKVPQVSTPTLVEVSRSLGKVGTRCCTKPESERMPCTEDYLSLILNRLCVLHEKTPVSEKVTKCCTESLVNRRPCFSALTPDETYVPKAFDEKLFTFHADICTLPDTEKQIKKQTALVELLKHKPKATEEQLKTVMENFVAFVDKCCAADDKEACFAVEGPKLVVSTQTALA

In general, EC50 refers to the concentration at which the effect is half-maximal. High values mean weaker potency, low ones greater potency. The IC50 is the concentration that gives 50% inhibition. As for `C/C(=N\O)c1ccc(NC(=O)COC(=O)/C=C/c2cccs2)cc1` [Compound 6c, 2-((4-((E)-1-(Hydroxyimino)ethyl)phenyl)amino)-2-oxoethyl (E)-3-(thiophen-2-yl)acrylate], on bovine serum albumin, the “Albumin (inhibition of albumin denaturation)” value was “no”. In addition, the EC50 was greater than 100 µM in the data set with MCF-7 cells and 83 µM in the data set on HeLa cells. The “%NO2^− Release mol/mol at 100 μΜ” value in data set [1] was 4%. Further, the IC50 in data set [2] came to 10 µM.

Regarding `C/C(=N\O)c1ccc(NC(=O)COC(=O)/C(=C/c2cccs2)c2ccccc2)cc1` [Compound 6i, 2-((4-((E)-1-(Hydroxyimino)ethyl)phenyl)amino)-2-oxoethyl (E)-2-phenyl-3-(thiophen-2-yl)acrylate], the “Albumin (inhibition of albumin denaturation)” value on bovine serum albumin was “no”. Further, the EC50 in the data set with MCF-7 cells came to 38.3 µM; in the data set on HeLa cells, 36.7 µM. In addition, the “%NO2^− Release mol/mol at 100 μΜ” value in data set [1] was “no activity and no”. In addition, the IC50 in data set [2] came out at 60 µM.

On to `O=C(/C=C/c1cc2ccccc2s1)OCc1c(-c2ccccc2)no[n+]1[O-]` [Compound 9e, (E)-3-(((3-(Benzo[b]thiophen-2-yl)acryloyl)oxy)methyl)-4-phenyl-1,2,5-oxadiazole 2-oxide], for which, on bovine serum albumin, the “Albumin (inhibition of albumin denaturation)” value is “no”. Besides, the EC50 in the data set with MCF-7 cells was found to be 58.5 µM; in the data set on HeLa cells, 55.5 µM. The “%NO2^− Release mol/mol at 100 μΜ” value in data set [1] is reported as “no”. Moreover, the IC50 in data set [2] was 65 µM.
